Measurements reported in US20160168540A1, “COMPOSITION FOR MAINTAINING PLATELET FUNCTION” (KYOTO UNIVERSITY, priority 2013, published 2016).
pIC50: −log10 of the molar value. Entries after “also recorded” stand apart in the source; their conditions may differ. Read-outs that look alike come from different tables or passages of the source.

Legend:
[1] = target: T1, TACE (ADAM17) (Homo sapiens, UniProt P78536); assay: TACE (ADAM17) inhibition test; assay type: biochemical; settings: fluorescent synthetic substrate, 37° C. for 1.5 hours
T1 construct: made in house; host or cells: mammalian cells or insect cells
T1 sequence (P78536 215-824): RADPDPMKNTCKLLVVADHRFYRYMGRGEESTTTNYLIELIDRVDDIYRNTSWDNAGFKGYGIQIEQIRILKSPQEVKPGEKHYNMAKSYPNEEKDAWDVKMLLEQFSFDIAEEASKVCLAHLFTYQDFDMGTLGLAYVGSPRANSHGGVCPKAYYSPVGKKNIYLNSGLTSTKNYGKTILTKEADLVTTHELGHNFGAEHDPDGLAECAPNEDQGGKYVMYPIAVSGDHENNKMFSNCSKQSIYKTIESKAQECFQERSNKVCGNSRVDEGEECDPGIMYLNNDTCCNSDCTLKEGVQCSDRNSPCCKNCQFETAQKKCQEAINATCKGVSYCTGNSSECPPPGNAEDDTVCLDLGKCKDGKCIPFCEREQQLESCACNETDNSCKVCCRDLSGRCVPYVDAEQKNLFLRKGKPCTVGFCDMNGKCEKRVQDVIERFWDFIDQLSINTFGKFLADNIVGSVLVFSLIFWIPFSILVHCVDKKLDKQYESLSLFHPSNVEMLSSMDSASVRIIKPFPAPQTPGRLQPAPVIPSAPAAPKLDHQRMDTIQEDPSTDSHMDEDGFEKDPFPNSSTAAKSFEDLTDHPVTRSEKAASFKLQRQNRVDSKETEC
Outline: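 Recombinant human TACE (mammalian or insect cell expressed) cleaves Nma-LAQAVRSSK(Dnp)-D-Arg-NH2 quenched substrate, 1.5 h at 37 °C. Fluorescence read at Ex 355/Em 460 nm; IC50 from inhibition vs no-compound control, binned A (<100 nM) or B (≥100 nM).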

[2] = system: iPS cell-derived platelets; assay: Function-maintaining effect on iPS cell-derived platelets (flow cytometry of CD41a/CD42a/CD42b); assay type: cell-based, human
Procedure: Human iPS cells (hiPS cells), an iPS cell line (TkDA3-4) established at the University of Tokyo by introducing Oct4, Klf4, Sox2, and c-Myc into human-derived skin cells were cultured on inactivated mouse fibroblasts by treating with 10 μg/mL MitomycinC (manufactured by Wako Pure Chemical Industries Ltd.) in a medium mixture of Dulbecco's modified Eagle's medium and Ham's F-12 medium (manufactured by Sigma-Aldrich Co.) (mixing ratio 1:1) supplemented with 0.1 mM non-essential amino acid (manufactured by Invitrogen Corp.), PSG (100 U/mL penicillin, 100 U/mL streptomycin, and 2 mM L-glutamine) (manufactured by Invitrogen Corp.), 20% knockout serum replacement additive (KSR, manufactured by Invitrogen Corp.), 0.1 mM 2-mercaptoethanol (manufactured by Invitrogen Corp.), and 5 ng/ml basic fibroblast growth factor (bFGF, manufactured by Wako Pure Chemical Industries Ltd.). The cells were subcultured every 3 days, and those cells maintaining an undifferentiated state were used.
In addition, mouse embryo-derived fibroblasts, a C3H10T½ cell line (hereinafter also referred to as “10T½ cells”), purchased from RIKEN BioResource Center were cultured in basal medium Eagle (BME, manufactured by Invitrogen Corp.) supplemented with 10% fetal bovine serum (FBS) and PSG (100 U/mL penicillin, 100 U/mL streptomycin, and 2 mM L-glutamine) (manufactured by Invitrogen Corp.). Then, the 10T½ cells, which had been deactivated in advance by treating with MitomycinC, were seeded so as to give a cell count of 8×10^6/10-cm dish for use as feeder cells. […]
Next, the sac structures were detached from the dish, split open, passed through a 40-μm cell strainer (manufactured by BD), and then centrifuged at 1,500 rpm for 8 minutes to collect hematopoietic progenitor cells. […] Then, the number of cells was counted. […]

[3] = system: human peripheral blood-derived platelets; assay: Function-maintaining effect on human peripheral blood-derived platelets (CCCP-enhanced GPIbα shedding); assay type: cell-based; settings: 0.1 to 100 μM, with 100 μM of CCCP, 37° C. for 24 hours; listed as S-108470
Procedure: First, ACD was added in a ratio of 1/10 to human peripheral blood obtained by collecting blood, and centrifuged at 900 rpm for 10 minutes without a break. The supernatant obtained by the centrifugation was further centrifuged at 1,500 rpm for 10 minutes without a break, and then the supernatant was removed. The obtained precipitate was suspended in a Tyrode-HEPES buffer (not containing calcium). The number of platelets in the suspension was counted, and the platelet-containing suspension (Washed Platelet) was adjusted to have a fixed number (about 5×10^7) of platelets in 200 μL of the Tyrode-HEPES buffer (not containing calcium). Next, as described in Protocol 2 shown in FIG. 1, one of either S-108470 (0.1 to 100 μM), TACE inhibitor S (50 μM), or DMSO was added together with 100 μM of CCCP (carbonyl cyanide m-chlorophenyl hydrazone) to the washed platelets. After incubation at 37° C. for 24 hours, the number of CD42b (GPIbα) (+) cells in the CD41a (+) platelets was measured by flow cytometry. Note that, it is known that addition of CCCP enhances GPIbα shedding on the surface of platelets (see Bergmeier et al., Blood, 2003, vol. 102, pp. 4229-4235).

Structure (SMILES) | pIC50 ([1]; read-out: TACE IC50) | other results
Cc1cccn(CC2(c3ccc(F)c(F)c3)NC(=O)NC2=O)c1=O (single isomer, unassigned; (+)) [(+)-I-10, (+)-5-(3,4-difluorophenyl)-5-[(3-methyl-2-oxopyridin-1(2H)-yl)methyl]imidazolidine-2,4-dione] | > 7.00 | pIC50 ([1]; read-out: TACE inhibitory action, IC50 value): > 7.00; number of obtained CD41a (+) CD42a (+) platelets compared with the medium control group ([2]; 10 and 30 μM, treated for 9 to 10 days): slightly larger; percentage of CD41a (+) CD42a (+) CD42b (+) platelets compared with the medium control group ([2]; 10 and 30 μM, treated for 9 to 10 days, listed as S-108470): significant increase; also recorded: increased the percentage of CD42b (+) cells; cytotoxicity / impact on platelet differentiation ([2]; culture system using iPS cells): without exhibiting cytotoxicity or having any impact on platelet differentiation; inhibition of GPIbα shedding (CD42b (GPIbα) (+) cells in the CD41a (+) platelets) [3]: inhibits GPIbα shedding in a concentration-dependent manner; also recorded: suppressed in a concentration-dependent manner
Cc1cccn(CC2(c3ccc(Cc4ccccc4)cc3)NC(=O)NC2=O)c1=O (racemic) [Compound I-40, 5-(4-benzylphenyl)-5-[(3-methyl-2-oxopyridin-1(2H)-yl)methyl]imidazolidine-2,4-dione] | > 7.00 | –
O=C1NC(=O)C(Cn2cccc(F)c2=O)(c2ccc(F)c(F)c2)N1 (racemic) [Compound I-145] | > 7.00 | –
Cc1cccn(CC2(c3ccc(OC(F)(F)F)cc3)NC(=O)NC2=O)c1=O (racemic) [Compound I-79] | > 7.00 | –
Cc1cccn(CC2(c3ccc(Oc4ccccc4)c(Cl)c3)NC(=O)NC2=O)c1=O (racemic) [Compound I-123] | > 7.00 | –
Cc1cccn(CC2(c3ccc4c(c3)CCCO4)NC(=O)NC2=O)c1=O (racemic) [Compound I-26, 5-(chroman-6-yl)-5-[(3-methyl-2-oxopyridin-1(2H)-yl)methyl]imidazolidine-2,4-dione] | > 7.00 | –

The next lines start with results.

pIC50 ([1]; read-out: TACE IC50) | Structure (SMILES) | other results
> 7.00 | Cc1cccn(CC2(c3ccc(Oc4cccnc4)cc3)NC(=O)NC2=O)c1=O (racemic) [Compound I-101] | –
> 7.00 | CCOc1ccc(C2(Cn3cccc(C)c3=O)NC(=O)NC2=O)cc1 (racemic) [Compound I-119] | –
> 7.00 | Cc1cccn(CC2(c3ccc(Oc4ccc(F)cc4)c(F)c3)NC(=O)NC2=O)c1=O (racemic) [Compound I-111] | –
